Assay results: patent publication US6914045B2, “Glycopeptide antibiotics” (Wyeth Holdings Corporation, priority 2001, dated 2005)
Values after ≈ are worked out from the molar mass of the structure shown.

Columns and labels:
Assay in all cases: in vitro antibacterial evaluation, MIC by broth dilution
Type in all cases: cell-based
Escherichia coli = settings: 18 hours at 35° C.
Summary of the method: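 Broth dilution in Muller-Hinton II medium per NCCLS standard M7-A2, with an inoculum of 5×10^5 CFU/mL and antibiotic tested over 64-0.06 μg/mL. MIC was taken as the lowest concentration inhibiting visible growth.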

Streptococcus sp. = settings: broth dilution, 18 hours at 35° C.
Summary of the method: (§1)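 Broth dilution per NCCLS standard M7-A2 in Muller-Hinton II […], with an inoculum of 5×10^5 CFU/mL and antibiotic spanning 64-0.06 μg/mL. The MIC is the lowest concentration that inhibits growth of the organism.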

Staphylococcus sp. = settings: broth dilution, 18 hours at 35° C.
Summary of the method: as §1

Enterococcus sp. = settings: broth dilution, 18 hours at 35° C.
Summary of the method: as §1

## CC(c1ccccc1)C1NC(=O)CNC(=O)C(CO)NC(=O)C(C(O)C2CN(Cc3ccccc3)C(=NCc3ccccc3)N2C2OC(CO)C(O)C(O)C2O)NC(=O)C(C(O)C2CN(Cc3ccccc3)C(=NCc3ccccc3)N2Cc2ccccc2)NC(=O)C(Cc2ccc(OC3OC(CO)C(OC4OC(CO)C(O)C(O)C4O)C(O)C3O)cc2)NC1=O (stereo not drawn) [Example 62, Cyclo[glycyl-β-methylphenylalanyl-O-(4-O-hexopyranosylhexopyranosyl)tyrosyl-3-[1,3-dibenzyl-2-(benzylimino)imidazolidin-4-yl]seryl-3-[1-benzyl-2-(benzylimino)-3-hexopyranosylimidazolidin-4-yl]serylseryl]]
Escherichia coli
  MIC Escherichia coli (ATCC 25922): >128 µg/mL
  MIC Escherichia coli (GC 4559): >128 µg/mL
  MIC Escherichia coli (GC 4560): 4 µg/mL (≈ 2.29 µM)
Streptococcus sp.
  MIC Streptococcus agalactiae (GC 4564): >128 µg/mL
  MIC Streptococcus pneumoniae (ATCC 6301): 128 µg/mL (≈ 73.3 µM)
  MIC Streptococcus pneumoniae (GC 1894): 64 µg/mL (≈ 36.7 µM)
  MIC Streptococcus pneumoniae (GC 4565): 128 µg/mL (≈ 73.3 µM)
  MIC Streptococcus pyogenes (GC 4563): >128 µg/mL
Streptococcus sp.; strain ATCC 6301
  MIC Streptococcus pneumoniae (ATCC 6301): 128 µg/mL (≈ 73.3 µM)
Streptococcus sp.; strain GC 1894
  MIC Streptococcus pneumoniae (GC 1894): 64 µg/mL (≈ 36.7 µM)
Streptococcus sp.; strain GC 4563
  MIC Streptococcus pyogenes (GC 4563): >128 µg/mL
Streptococcus sp.; strain GC 4564
  MIC Streptococcus agalactiae (GC 4564): >128 µg/mL
Streptococcus sp.; strain GC 4565
  MIC Streptococcus pneumoniae (GC 4565): 128 µg/mL (≈ 73.3 µM)
Staphylococcus sp.; strain ATCC 29213
  MIC Staphylococcus aureus (ATCC 29213): >128 µg/mL
Staphylococcus sp.; strain GC 1131
  MIC Staphylococcus aureus (GC 1131): >128 µg/mL
Staphylococcus sp.; strain GC 3051
  MIC Staphylococcus aureus (GC 3051): >128 µg/mL
Staphylococcus sp.; strain GC 3053
  MIC Staphylococcus aureus (GC 3053): >128 µg/mL
Staphylococcus sp.; strain GC 4541
  MIC Staphylococcus aureus (GC 4541): >128 µg/mL
Staphylococcus sp.; strain GC 4542
  MIC Staphylococcus aureus (GC 4542): >128 µg/mL
Staphylococcus sp.; strain GC 4543
  MIC Staphylococcus aureus-SMITH (GC 4543): >128 µg/mL
Staphylococcus sp.; strain GC 4544
  MIC Staphylococcus aureus (GC 4544): >128 µg/mL
Staphylococcus sp.; strain GC 4545
  MIC Staphylococcus aureus (GC 4545): >128 µg/mL
Staphylococcus sp.; strain GC 4546
  MIC Staphylococcus haemolyticus (GC 4546): >128 µg/mL
Staphylococcus sp.; strain GC 4547
  MIC Coagulase Negative Staphylococcus (GC 4547): >128 µg/mL
Staphylococcus sp.; strain GC 4548
  MIC Coagulase Negative Staphylococcus (GC 4548): >128 µg/mL
Staphylococcus sp.; strain GC 4549
  MIC Coagulase Negative Staphylococcus (GC 4549): >128 µg/mL
Staphylococcus sp.; strain GC 4551
  MIC Coagulase Negative Staphylococcus (GC 4551): >128 µg/mL
Staphylococcus sp.; strain GC 6257
  MIC Coagulase Negative Staphylococcus (GC 6257): >128 µg/mL
Enterococcus sp.; Enterococcus avium (GC 4558)
  MIC Enterococcus avium (GC 4558): 128 µg/mL (≈ 73.3 µM)
Enterococcus sp.; Enterococcus faecalis (ATCC 29212)
  MIC Enterococcus faecalis (ATCC 29212): >128 µg/mL
Enterococcus sp.; Enterococcus faecalis (GC 4552)
  MIC Enterococcus faecalis (GC 4552): >128 µg/mL
Enterococcus sp.; Enterococcus faecalis (GC 4553)
  MIC Enterococcus faecalis (GC 4553): 128 µg/mL (≈ 73.3 µM)
Enterococcus sp.; Enterococcus faecalis (GC 4554)
  MIC Enterococcus faecalis (GC 4554): >128 µg/mL
Enterococcus sp.; Enterococcus faecalis (GC 6189)
  MIC Enterococcus faecalis (GC 6189): >128 µg/mL
Enterococcus sp.; Enterococcus faecium (GC 2243)
  MIC Enterococcus faecium (GC 2243): >128 µg/mL
Enterococcus sp.; Enterococcus faecium (GC 4556)
  MIC Enterococcus faecium (GC 4556): >128 µg/mL
Enterococcus sp.; Enterococcus faecium (GC 4557)
  MIC Enterococcus faecium (GC 4557): 64 µg/mL (≈ 36.7 µM)
Enterococcus sp.
  MIC Enterococcus avium (GC 4558): 128 µg/mL (≈ 73.3 µM)
  MIC Enterococcus faecalis (ATCC 29212): >128 µg/mL
  MIC Enterococcus faecalis (GC 2242): >128 µg/mL
  MIC Enterococcus faecalis (GC 2691): >128 µg/mL
  MIC Enterococcus faecalis (GC 3059): >128 µg/mL
  MIC Enterococcus faecalis (GC 4552): >128 µg/mL
  MIC Enterococcus faecalis (GC 4553): 128 µg/mL (≈ 73.3 µM)
  MIC Enterococcus faecalis (GC 4554): >128 µg/mL
  MIC Enterococcus faecalis (GC 6189): >128 µg/mL
  MIC Enterococcus faecium (GC 2243): >128 µg/mL
  MIC Enterococcus faecium (GC 4556): >128 µg/mL
  MIC Enterococcus faecium (GC 4557): 64 µg/mL (≈ 36.7 µM)
Enterococcus sp.; strain GC 2242
  MIC Enterococcus faecalis (GC 2242): >128 µg/mL
Enterococcus sp.; strain GC 2691
  MIC Enterococcus faecalis (GC 2691): >128 µg/mL
Enterococcus sp.; strain GC 3059
  MIC Enterococcus faecalis (GC 3059): >128 µg/mL
